Experimental data reported in ChEMBL document CHEMBL1944552, “Pharmacophore-based discovery of a novel cytosolic phospholipase A(2)α inhibitor” (Bioorg Med Chem Lett, 2012).

Experiments:
[1] = Inhibition of cPLA2alpha
[2] = Inhibition of human recombinant His-tagged cPLA2alpha expressed in baculovirus-infected Sf9 cells assessed as residual activity at 10 uM after 1 hr by RP-HPLC analysis
[3] = Aqueous solubility of the compound at >10 uM; type: physicochemical; details: buffer
[4] = Inhibition of human recombinant His-tagged cPLA2alpha expressed in baculovirus-infected Sf9 cells after 1 hr by RP-HPLC analysis
[5] = Inhibition of cPLA2alpha-mediated [3H]-arachidonic acid release in Ca2+ ionophore A23187-stimulated human monocytes preincubated for 15 mins prior Ca2+ ionophore A23187 stimulation measured after 5 mins by scintillation counting

Row | solubility [3] | Structure (SMILES) | Activity [2] | also measured
1 |  | Cn1ccnc1SCCCCOc1ccc(OCC(=O)COc2ccc(C(=O)O)cc2)cc1 |  | IC50 [1]: 63 µM
2 | Insoluble | COc1cc(/N=N/c2ccc3cc(S(=O)(=O)O)cc(S(=O)(=O)O)c3c2)ccc1/N=N/c1ccc(NC(=O)c2ccc(NC(=O)c3ccccc3)cc2)cc1C | 62.7% | 
3 | Insoluble | Cc1cc(N)ccc1/N=N/c1ccc(/N=N/c2ccc(/N=N/c3ccc4cc(S(=O)(=O)O)cc(S(=O)(=O)O)c4c3)c(C)c2)c(C)c1 | 81.9% | 
4 |  | O=C(COc1ccc(C(=O)O)cc1)COc1ccc(C(=O)NCCCCc2ccccc2)cc1 |  | IC50 [1]: 20 µM
5 | Insoluble | CCCCCCCCCCCCCCCc1cc(=O)n(-c2ccc(NC(=O)/C=C/C(=O)O)cc2)n1C | 92.6% | 
6 | Insoluble | CCCCCCCCCCCCCCCCN(C)c1ccc(S(=O)(=O)O)cc1[N+](=O)[O-] | 61.4% | 
7 | Insoluble | CCCCCCCCCCCCCCCC1=NN(c2ccc(S(=O)(=O)O)cc2)C(=O)C1/N=N/c1ccccc1 (centres undefined) | 77.1% | 
8 |  | O=C(COc1ccc(SCCCCSc2nccs2)cc1)COc1ccc(C(=O)O)cc1 |  | IC50 [1]: 0.76 µM
9 | Insoluble | Cc1cc(-c2ccc(/N=N/c3c(S(=O)(=O)O)cc4cc(S(=O)(=O)O)cc(N)c4c3O)c(C)c2)ccc1/N=N/c1ccc2c(S(=O)(=O)O)ccc(N)c2c1O | 87.5% | 
10 | Insoluble | CCCCCCCCCCCCCCCc1nnc(SCC(=O)O)[nH]1 | 85.1% | 
11 |  | CCCCCCCCCCCCCCCCOc1ccc(C(=O)O)cc1NC(=O)/C(=N/O)C(C)=O |  | IC50 [4]: 4 µM; IC50 [5]: 5 µM
12 | Insoluble | CCCCCCCCCCCCCCCCOc1ccc(S(=O)(=O)N/N=c2/sc3ccc(S(=O)(=O)O)cc3n2C)cc1C(=O)O | 70.2% | 
13 | Insoluble | CCCCCCCCCCCCCCCCCC1=NCCN1CCN(CS(=O)(=O)O)CS(=O)(=O)O | 106% | 
14 | Insoluble | CCCCCCCCCCCCCCCCOc1ccc(C(=O)O)cc1 | 88.4% | 
15 | Insoluble | CCCCCCCCCCCCCCCCCC1=NCCN1CS(=O)(=O)O | 94.7% | 
16 |  | CN(CCc1ccccc1)C(=O)CSc1ccc(OCC(=O)COc2ccc(C(=O)O)cc2)cc1 |  | IC50 [1]: 34 µM
17 |  | O=C(COc1ccc(SCCCCCc2ccccc2)cc1)COc1ccc(C(=O)O)cc1 |  | IC50 [1]: 0.004 µM
